Source: patent US10479780B2, “Aminopyrazole derivatives” (Chugai Seiyaku Kabushiki Kaisha, priority 2015, dated 2019)
Read-outs that look alike come from different tables or passages of the source.

Tests used:
Type in all cases: biochemical
[1] = molecular target: T1, human Lck enzyme (Homo sapiens, UniProt P06239); assay: Lck enzyme inhibitory activity (time-resolved fluorometry, biotinylated peptide phosphorylation); conditions: read-out: LCK_IC50
T1 construct: purchased Carna Biosciences, Inc. 08-170
Summary of the method: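 Readout pairs a europium cryptate-labelled anti-phosphotyrosine antibody with XL665-streptavidin, measured by time-resolved fluorescence. IC50 derived from percent inhibition against untreated controls.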

[2] = molecular target: T2, human Src enzyme (Homo sapiens, UniProt P12931); assay: Src enzyme inhibitory activity (time-resolved fluorometry, biotinylated peptide phosphorylation); conditions: read-out: SRC_IC50
T2 construct: purchased Carna Biosciences, Inc. 08-173
Summary of the method: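 Compounds were tested for blocking tyrosine phosphorylation of a biotinylated peptide substrate by recombinant human Src. Phosphorylated product was quantified by time-resolved fluorometry using europium cryptate and XL665 conjugates, and IC50 was calculated against the compound-free control.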

[3] = molecular target: T3, human Yes1 enzyme (Homo sapiens, UniProt P07947); assay: Yes1 enzyme inhibitory activity (time-resolved fluorometry, biotinylated peptide phosphorylation); conditions: read-out: YES_IC50
T3 construct: made in house
Summary of the method: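 Inhibition was expressed against a compound-free control to give IC50, using TR-FRET read-out (Eu-cryptate anti-pTyr antibody, streptavidin-XL665).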

[4] = biotinylated peptide phosphorylation

T3 sequence (P07947 whole entry): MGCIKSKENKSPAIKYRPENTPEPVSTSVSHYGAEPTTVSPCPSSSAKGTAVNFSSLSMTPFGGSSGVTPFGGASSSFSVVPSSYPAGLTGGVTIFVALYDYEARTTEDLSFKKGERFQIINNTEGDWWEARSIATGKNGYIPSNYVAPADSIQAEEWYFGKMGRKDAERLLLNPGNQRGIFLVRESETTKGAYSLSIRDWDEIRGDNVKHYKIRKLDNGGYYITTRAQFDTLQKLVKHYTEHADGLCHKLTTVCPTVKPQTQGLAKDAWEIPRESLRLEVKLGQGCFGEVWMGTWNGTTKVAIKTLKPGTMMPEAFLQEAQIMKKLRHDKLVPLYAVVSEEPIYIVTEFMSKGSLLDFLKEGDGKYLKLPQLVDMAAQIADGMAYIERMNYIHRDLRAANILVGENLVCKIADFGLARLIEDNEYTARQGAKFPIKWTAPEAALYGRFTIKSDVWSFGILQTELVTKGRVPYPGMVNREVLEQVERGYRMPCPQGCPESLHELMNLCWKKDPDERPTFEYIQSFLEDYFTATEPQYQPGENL
T1 sequence (P06239 whole entry): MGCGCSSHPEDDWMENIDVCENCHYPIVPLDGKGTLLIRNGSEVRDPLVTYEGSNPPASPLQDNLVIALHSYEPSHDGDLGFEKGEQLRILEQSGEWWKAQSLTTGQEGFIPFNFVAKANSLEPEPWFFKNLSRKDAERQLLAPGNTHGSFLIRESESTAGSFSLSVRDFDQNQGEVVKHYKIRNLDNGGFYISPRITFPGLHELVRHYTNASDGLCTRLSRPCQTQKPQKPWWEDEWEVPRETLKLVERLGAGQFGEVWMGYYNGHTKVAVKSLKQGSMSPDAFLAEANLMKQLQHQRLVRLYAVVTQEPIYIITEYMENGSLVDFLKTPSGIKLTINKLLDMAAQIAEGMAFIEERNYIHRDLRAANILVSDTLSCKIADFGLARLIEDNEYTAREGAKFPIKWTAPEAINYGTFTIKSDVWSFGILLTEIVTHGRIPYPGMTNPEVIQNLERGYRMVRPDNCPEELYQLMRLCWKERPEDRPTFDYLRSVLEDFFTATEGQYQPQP
T2 sequence (P12931 whole entry): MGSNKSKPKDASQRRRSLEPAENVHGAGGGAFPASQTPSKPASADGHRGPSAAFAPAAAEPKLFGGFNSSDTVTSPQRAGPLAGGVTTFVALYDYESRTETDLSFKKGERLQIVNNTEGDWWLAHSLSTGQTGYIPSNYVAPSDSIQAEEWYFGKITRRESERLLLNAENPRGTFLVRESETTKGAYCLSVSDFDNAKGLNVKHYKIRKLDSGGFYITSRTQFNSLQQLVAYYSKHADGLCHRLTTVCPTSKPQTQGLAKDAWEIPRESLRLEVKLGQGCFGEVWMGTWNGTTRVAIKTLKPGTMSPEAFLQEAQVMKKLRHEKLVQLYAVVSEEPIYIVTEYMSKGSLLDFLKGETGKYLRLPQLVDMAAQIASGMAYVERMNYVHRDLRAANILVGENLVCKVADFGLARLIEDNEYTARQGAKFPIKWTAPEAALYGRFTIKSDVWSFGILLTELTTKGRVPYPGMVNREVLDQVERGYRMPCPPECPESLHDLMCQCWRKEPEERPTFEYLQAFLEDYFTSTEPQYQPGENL

Compound: Cc1cc(Oc2cccc(F)c2F)ccc1-n1ncc(C(=O)c2cc3cc(Cl)c(NS(C)(=O)=O)cc3[nH]2)c1N [Example 4-2-078, N-[2-[5-amino-1-[4-(2,3-difluorophenoxy)-2-methylphenyl]pyrazole-4-carbonyl]-5-chloro-1H-indol-6-yl]methanesulfonamide]
- IC50 [1, 4]: 50 nM
- IC50 [2, 4]: 91 nM
- IC50 [3, 4]: 5.9 nM

Compound: COc1cc2cc(C(=O)c3cnn(-c4ccc(Oc5ccccc5F)cc4C)c3N)[nH]c2cc1NS(C)(=O)=O [Example 4-1-004, N-[2-[5-Amino-1-[4-(2-fluorophenoxy)-2-methylphenyl]pyrazole-4-carbonyl]-5-methoxy-1H-indol-6-yl]methanesulfonamide]
- IC50 [1, 4]: 3.4 nM
- IC50 [2, 4]: 21 nM
- IC50 [3, 4]: 0.52 nM

Compound: Cc1cc2cc(C(=O)c3cnn(-c4cnc(Oc5c(F)cccc5F)cc4C)c3N)[nH]c2cc1N1C(=O)NC2(CCOCC2)C1=O [Example 5-1-342, 3-[2-[5-amino-1-[6-(2,6-difluorophenoxy)-4-methylpyridin-3-yl]pyrazole-4-carbonyl]-5-methyl-1H-indol-6-yl]-8-oxa-1,3-diazaspiro[4.5] decane-2,4-dione]
- IC50 [1]: 5.3 nM
- IC50 [2]: 48 nM
- IC50 [3]: 1.7 nM

Compound: Cc1cc(Oc2ccccc2F)ncc1-n1ncc(C(=O)c2cc3cc(F)c(NS(=O)(=O)c4cccc(C#N)n4)cc3[nH]2)c1N [Example 5-1-539, N-[2-[5-amino-1-[6-(2-fluorophenoxy)-4-methylpyridin-3-yl]pyrazole-4-carbonyl]-5-fluoro-1H-indol-6-yl]-6-cyanopyridine-2-sulfonamide]
- IC50 [1, 4]: 220 nM
- IC50 [2, 4]: 800 nM
- IC50 [3, 4]: 11 nM

Compound: COc1cc2cc(C(=O)c3cnn(-c4cnc(Oc5c(F)cccc5F)cc4C)c3N)[nH]c2cc1NS(C)(=O)=O [Example 4-1-009, N-[2-[5-amino-1-[6-(2,6-difluorophenoxy)-4-methylpyridin-3-yl]pyrazole-4-carbonyl]-5-methoxy-1H-indol-6-yl]methanesulfonamide]
- IC50 [1, 4]: 4.5 nM
- IC50 [2, 4]: 59 nM
- IC50 [3, 4]: 1.1 nM

Compound: Cc1cc(Oc2ccccc2F)ccc1-n1ncc(C(=O)c2cc3cc(N4CCOCC4)c(Br)cc3[nH]2)c1N [Example 5-1-147, [5-amino-1-[4-(2-fluorophenoxy)-2-methylphenyl]pyrazol-4-yl]-(6-bromo-5-morpholin-4-yl-1H-indol-2-yl)methanone]
- IC50 [1]: 12 nM
- IC50 [2]: 5.1 nM
- IC50 [3]: 0.57 nM

Compound: Cc1ccccc1-c1cc2[nH]c(C(=O)c3cnn(-c4cnc(Oc5c(F)cccc5F)cc4C)c3N)cc2cc1OC1CCN(C2CCCC2)CC1 [Example 5-1-337, [5-amino-1-[6-(2,6-difluorophenoxy)-4-methylpyridin-3-yl]pyrazol-4-yl]-[5-(1-cyclopentylpiperidin-4-yl)oxy-6-(2-methylphenyl)-1H-indol-2-yl]methanone]
- IC50 [1]: 18 nM
- IC50 [2]: 120 nM
- IC50 [3]: 2.3 nM

Compound: Cc1cc(Oc2ccccc2F)ncc1-n1ncc(C(=O)c2cc3cc(N4CCOCC4)c(NS(=O)(=O)N4CCOCC4)cc3[nH]2)c1N [Example 4-22-004, N-[2-[5-amino-1-[6-(2-fluorophenoxy)-4-methylpyridin-3-yl]pyrazole-4-carbonyl]-5-morpholin-4-yl-1H-indol-6-yl]morpholine-4-sulfonamide]
- IC50 [1, 4]: 78 nM
- IC50 [2, 4]: 360 nM
- IC50 [3, 4]: 1.2 nM

Compound: Cc1cc(Oc2ccccc2F)cc(F)c1-n1ncc(C(=O)c2cc3cc(F)c(NS(=O)(=O)CCCF)cc3[nH]2)c1N [Example 4-2-019, N-[2-[5-amino-1-[2-fluoro-4-(2-fluorophenoxy)-6-methylphenyl]pyrazole-4-carbonyl]-5-fluoro-1H-indol-6-yl]-3-fluoropropane-1-sulfonamide]
- IC50 [1, 4]: 40 nM
- IC50 [2, 4]: 72 nM
- IC50 [3, 4]: 5.3 nM

Compound: Cc1cc(Oc2cccc(F)c2F)cc(F)c1-n1ncc(C(=O)c2cc3cc(Cl)c(NS(C)(=O)=O)cc3[nH]2)c1N [Example 4-2-080, N-[2-[5-amino-1-[4-(2,3-difluorophenoxy)-2-fluoro-6-methylphenyl]pyrazole-4-carbonyl]-5-chloro-1H-indol-6-yl]methanesulfonamide]
- IC50 [1, 4]: 68 nM
- IC50 [2, 4]: 170 nM
- IC50 [3, 4]: 12 nM

Compound: Cc1cc2cc(C(=O)c3cnn(-c4cnc(Oc5c(F)cccc5F)cc4C)c3N)[nH]c2cc1NS(=O)(=O)c1c(F)cc(F)cc1F [Example 5-1-565, N-[2-[5-amino-1-[6-(2,6-difluorophenoxy)-4-methylpyridin-3-yl]pyrazole-4-carbonyl]-5-methyl-1H-indol-6-yl]-2,4,6-trifluorobenzenesulfonamide]
- IC50 [1, 4]: 720 nM
- IC50 [2, 4]: 1100 nM
- IC50 [3, 4]: 19 nM

Compound: Cc1cc(-n2ncc(C(=O)c3cc4cc(OC5CCN(C(C)C)CC5)c(C5CCN(S(C)(=O)=O)CC5)cc4[nH]3)c2N)ccc1Oc1ccccc1F [Example 5-1-230, [5-amino-1-[4-(2-fluorophenoxy)-3-methylphenyl]pyrazol-4-yl]-[6-(1-methylsulfonylpiperidin-4-yl)-5-(1-propan-2-ylpiperidin-4-yl)oxy-1H-indol-2-yl]methanone]
- IC50 [1]: 7 nM
- IC50 [2]: 95 nM
- IC50 [3]: 0.68 nM

Compound: COc1cc2cc(C(=O)c3cnn(-c4cnc(Oc5ccccc5F)cc4C)c3N)[nH]c2cc1NC(C)=O [Example 4-11-001, N-{2-{5-amino-1-[6-(2-fluorophenoxy)-4-methylpyridin-3-yl]pyrazole-4-carbonyl}-5-methoxy-1H-indol-6-yl}acetamide]
- IC50 [1, 4]: 5.6 nM
- IC50 [2, 4]: 33 nM
- IC50 [3, 4]: 1.5 nM

Compound: Cc1cc2cc(C(=O)c3cnn(-c4c(C)cc(Oc5ccccc5Cl)cc4F)c3N)[nH]c2cc1NS(C)(=O)=O [Example 4-2-058, N-[2-[5-amino-1-[4-(2-chlorophenoxy)-2-fluoro-6-methylphenyl]pyrazole-4-carbonyl]-5-methyl-1H-indol-6-yl]methanesulfonamide]
- IC50 [1, 4]: 69 nM
- IC50 [2, 4]: 180 nM
- IC50 [3, 4]: 4 nM

Compound: COc1cc2cc(C(=O)c3cnn(-c4cnc(Oc5ccccc5F)cc4C)c3N)[nH]c2cc1NS(=O)(=O)CC(=O)N1CCOCC1 [Example 4-10-016, N-[2-[5-amino-1-[6-(2-fluorophenoxy)-4-methylpyridin-3-yl]pyrazole-4-carbonyl]-5-methoxy-1H-indol-6-yl]-2-morpholin-4-yl-2-oxoethanesulfonamide]
- IC50 [1, 4]: 5.8 nM
- IC50 [2, 4]: 17 nM
- IC50 [3, 4]: 0.59 nM

Compound: Cc1cc(Oc2c(F)cccc2F)ncc1-n1ncc(C(=O)c2cc3cc(OCC(F)F)c(NS(=O)(=O)C4CCOCC4)cc3[nH]2)c1N [Example 5-1-319, N-[2-[5-amino-1-[6-(2,6-difluorophenoxy)-4-methylpyridin-3-yl]pyrazole-4-carbonyl]-5-(2,2-difluoroethoxy)-1H-indol-6-yl]oxane-4-sulfonamide]
- IC50 [1]: 18 nM
- IC50 [2]: 88 nM
- IC50 [3]: 2.8 nM

Compound: Cc1cc2cc(C(=O)c3cnn(-c4cnc(Oc5c(F)cccc5F)cc4C)c3N)[nH]c2cc1N1C(=O)[C@@H]2C[C@@H](O)CN2C1=O [Example 5-1-455, (6R,7aS)-2-[2-[5-amino-1-[6-(2,6-difluorophenoxy)-4-methylpyridin-3-yl]pyrazole-4-carbonyl]-5-methyl-1H-indol-6-yl]-6-hydroxy-5,6,7,7a-tetrahydropyrrolo[1,2-c]imidazole-1,3-dione]
- IC50 [1, 4]: 2.6 nM
- IC50 [2, 4]: 23 nM
- IC50 [3, 4]: 0.86 nM

Compound: Cc1cc(-n2ncc(C(=O)c3cc4cc(N5CCOCC5)c(Br)cc4[nH]3)c2N)ccc1Oc1ccccc1F [Example 5-1-151, [5-amino-1-[4-(2-fluorophenoxy)-3-methylphenyl]pyrazol-4-yl]-(6-bromo-5-morpholin-4-yl-1H-indol-2-yl)methanone]
- IC50 [1]: 80 nM
- IC50 [2]: 600 nM
- IC50 [3]: 2.9 nM

Compound: Cc1cc(Oc2c(F)cccc2Cl)ncc1-n1ncc(C(=O)c2cc3cc(Cl)c(NS(C)(=O)=O)cc3[nH]2)c1N [Example 4-2-089, N-[2-[5-amino-1-[6-(2-chloro-6-fluorophenoxy)-4-methylpyridin-3-yl]pyrazole-4-carbonyl]-5-chloro-1H-indol-6-yl]methanesulfonamide]
- IC50 [1, 4]: 13 nM
- IC50 [2, 4]: 180 nM
- IC50 [3, 4]: 2.7 nM

Compound: Cc1cc(Oc2c(F)cccc2F)ncc1-n1ncc(C(=O)c2cc3cc(F)c(N4C(=O)N[C@@H](C)C4=O)cc3[nH]2)c1N [Example 5-1-406, (5S)-3-[2-[5-amino-1-[6-(2,6-difluorophenoxy)-4-methylpyridin-3-yl]pyrazole-4-carbonyl]-5-fluoro-1H-indol-6-yl]-5-methylimidazolidine-2,4-dione]
- IC50 [1, 4]: 3.1 nM
- IC50 [2, 4]: 75 nM
- IC50 [3, 4]: 2.2 nM

Compound: Cc1cc(Oc2ccccc2F)ccc1-n1ncc(C(=O)c2cc3cc(N4CCOCC4)c(NC4CCN(S(C)(=O)=O)CC4)cc3[nH]2)c1N [Example 5-1-129, [5-amino-1-[4-(2-fluorophenoxy)-2-methylphenyl]pyrazol-4-yl]-[6-[(1-methylsulfonylpiperidin-4-yl)amino]-5-morpholin-4-yl-1H-indol-2-yl]methanone]
- IC50 [1]: 4.6 nM
- IC50 [2]: 7.3 nM
- IC50 [3]: 0.61 nM

Compound: Cc1cc(Oc2ccccc2F)ccc1-n1ncc(C(=O)c2cc3cc(C4CC4)c(NS(=O)(=O)C4CCOCC4)cc3[nH]2)c1N [Example 5-1-397, N-[2-[5-amino-1-[4-(2-fluorophenoxy)-2-methylphenyl]pyrazole-4-carbonyl]-5-cyclopropyl-1H-indol-6-yl]oxane-4-sulfonamide]
- IC50 [1]: 31 nM
- IC50 [2]: 90 nM
- IC50 [3]: 1.8 nM
